Reference: publication PMC10397409, “The action of physiological and synthetic steroids on the calcium channel CatSper in human sperm” (Frontiers in Cell and Developmental Biology, 2023)
Like-named read-outs stand apart in the source and are kept apart here.

Experiments:
human sperm = experiment: Acrosome reaction in live human sperm (PSA-FITC flow cytometry); assay type: cell-based; conditions: 45 min; for cells with induced acrosome reaction: steroid 10 µM, capacitated sperm, increase not significant
Description: The evaluation of acrosome reaction in live human sperm cells was performed using a modified version of a previously described method ([Zoppino et al., 2012]). Briefly, swim-up recovered motile spermatozoa were allowed to capacitate for 4 h at 37°C in capacitating media (HTF+) containing: 93.8 mM NaCl, 4.7 mM KCl, 0.2 mM MgSO4, 0.369 mM KH2PO4, 2.04 mM CaCl2, 20.98 mM HEPES, 2.78 mM glucose, 21.4 mM Na-lactate, 25 mM NaHCO3, 6.6 µM Na-pyruvate, and the pH was adjusted to 7.35. Capacitated sperm were then incubated for 30 min with 5 μg/mL Pisum sativum agglutinin conjugated with fluorescein isothiocyanate (PSA-FITC) and 10 μg/mL Hoechst-33342. Samples were centrifuged at 700 x g for 10 min at room temperature to remove excess dye and resuspended in HTF+. Sperm were then incubated for 45 min in the absence (DMSO) or presence of the steroids at 10 μM, or positive control P4 at 10 µM. The ionophore A23187 was also used as a positive control and incubated with sperm at 2 µM for 30 min only. PI (0.5 μg/mL) was then added to all samples which were analyzed using BDFACSAria. FITC-PSA fluorescence was detected by excitation at 475 nm and emission at 560/35 nm, PI was detected by excitation at 530 nm and emission at 675/75 nm and Hoechst was detected by excitation at 346 nm and emission at 460 nm. Hoechst-positive and PI-negative cells were classified as live cells. Doublet exclusion was performed by two-dimensional dot plot analysis of forward-scatter width (FSC-W) versus forward-scatter height (FSC-H), and side-scatter width (SSC-W) versus side-scatter height (SSC-H) on the pre-selected singlets. Data were collected from 40,000 […] per sample to define the sperm population. Based on the selected population, PI-negative and PSA-FITC-positive cells were selected as live acrosome reacted cells, whereas PI-negative and PSA-FITC-negative cells were selected as live acrosome intact cells.

CatSper = molecular target: T1, CatSper (Homo sapiens, UniProt Q7RTX7+Q86XQ3+Q8NEC5+Q96P56); experiment: Inhibition of P4-induced Ca2+ influx in human sperm (screen 2 inhibitors); assay type: cell-based; conditions: for Max P4 inhibition (%) (± SD): 3 independent experiments
T1 construct: Motile spermatozoa were selected by a ‘swim-up’ procedure; endogenous in cells; host or cells: motile human spermatozoa (swim-up) from healthy donors

[1] = IC50 (±SD), inhibition of P4-induced Ca2+ response, dose-response 90 µM to 0.3 nM
[2] = Mean IC50 (P4) µM (±SD), P4-induced response, pooled from 3 independent experiments

Row | Compound | cells with induced acrosome reaction (human sperm) | Max P4 inhibition (%) (± SD) (CatSper) | IC50 (CatSper; [1]) [µM] | IC50 (CatSper; [2]) [µM] | effect on acrosome reaction (AR) (human sperm; steroids 10 µM, P4 10 µM) | IC50 (CatSper; inhibition of P4-induced Ca2+ response, dose-response 90 µM to 0.3 nM, read-out: IC50 (±SD)) [µM]
1 | CC(=O)[C@H]1CC[C@H]2[C@@H]3CC=C4C[C@@H](O)CC[C@]4(C)[C@H]3CC[C@]12C [Pregnenolone] | more than 10% | 82 (±5) % | 0.199 |  |  | 
2 | C[C@]12Cc3c[nH]nc3C[C@@H]1CC[C@@H]1[C@@H]2CC[C@@]2(C)[C@H]1CC[C@]2(C)O [Stanozolol] | more than 10% | 96 (±2) % | 0.194 | 0.19 |  | 
3 | CC(=O)[C@H]1CC[C@H]2[C@@H]3CCC4=CC(=O)CC[C@]4(C)[C@H]3CC[C@]12C [Progesterone] |  | 79 (±7) % |  |  | only slightly increased the AR | 0.006
4 | C[C@]12CC[C@H](O)C[C@@H]1CC[C@@H]1[C@@H]2CC[C@]2(C)C(=O)CC[C@@H]12 [Epiandrosterone] | more than 10% | 72 (±2) % | 0.628 | 0.625 |  | 
